According to PubChem BioAssay AID292 (DTP/NCI, 2004):
“And” between values parts separate entries of the source, which are not always exact repeats. Identical values can stand only once. Inconclusive results and toxic doses are left out.

Test system: B6C3F1 mice, ip Sarcoma M5076, median survival T/C
Test: NCI In Vivo Anticancer Drug Screen. Data for tumor model Sarcoma M5076 (intraperitoneal) in B6C3F1 mice
Details: endpoint: median survival time, schedule: Q04DX004 (ip), higher = longer survival
Method in brief: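 Mice carrying the transplanted tumour received compound treatment. Survival was recorded, and each value is the treated-group measurement divided by that of the vehicle-dosed control group.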

[1] = dose: 25.0 mg/kg/injection, vehicle: water
[2] = dose: 50.0 mg/kg/injection, vehicle: water
[3] = dose: 25.0 mg/kg/injection, vehicle: Klucel (hydroxypropylcellulose) (HPC)
[4] = dose: 50.0 mg/kg/injection, vehicle: Klucel (hydroxypropylcellulose) (HPC)
[5] = dose: 100.0 mg/kg/injection, vehicle: Klucel (hydroxypropylcellulose) (HPC)
[6] = dose: 200.0 mg/kg/injection, vehicle: Klucel (hydroxypropylcellulose) (HPC)
[7] = dose: 400.0 mg/kg/injection, vehicle: Klucel (hydroxypropylcellulose) (HPC)
[8] = dose: 100.0 mg/kg/injection, vehicle: saline with Tween-80
[9] = dose: 200.0 mg/kg/injection, vehicle: saline with Tween-80
[10] = dose: 6.25 mg/kg/injection, vehicle: Klucel (hydroxypropylcellulose) (HPC)
[11] = dose: 12.5 mg/kg/injection, vehicle: Klucel (hydroxypropylcellulose) (HPC)
[12] = dose: 800.0 mg/kg/injection, vehicle: Klucel (hydroxypropylcellulose) (HPC)
[13] = dose: 50.0 mg/kg/injection, vehicle: saline
[14] = dose: 100.0 mg/kg/injection, vehicle: saline

## Cc1nnc2nc(N)[nH]n2c1=O
[1]
  T/C: 97 % of control
[2]
  T/C: 104 % of control
dose: 100.0 mg/kg/injection, vehicle: water
  T/C: 96 % of control

## O=C(c1ncccc1O)N1CCCCC1
dose: 40.63 mg/kg/injection, vehicle: distilled water + Tween-80
  T/C: 86 % of control
dose: 81.25 mg/kg/injection, vehicle: distilled water + Tween-80
  T/C: 103 % of control
dose: 325.0 mg/kg/injection, vehicle: distilled water + Tween-80
  T/C: 97 % of control
dose: 650.0 mg/kg/injection, vehicle: distilled water + Tween-80
  T/C: 90 % of control

## Cn1[nH]c2[nH]c(=S)sc(=S)c2c1=O
[3]
  T/C: 100 % of control
[4]
  T/C: 94 % of control
[5]
  T/C: 95 % of control
[6]
  T/C: 94 % of control
[7]
  T/C: 95 % of control

## O=c1[nH]c(=O)n(C2CC(O)C(CO)O2)cc1I (stereo not given)
[8]
  T/C: 103 % of control and 117 % of control
[9]
  T/C: 108 % of control and 118 % of control
dose: 400.0 mg/kg/injection, vehicle: saline with Tween-80
  T/C: 122 % of control
dose: 800.0 mg/kg/injection, vehicle: saline with Tween-80
  T/C: 158 % of control
dose: 1600.0 mg/kg/injection, vehicle: saline with Tween-80
  T/C: 243 % of control

## CCN(CC)c1ccc2[nH]c3c(C(N)=O)cc(=O)c(=O)c=3oc2c1
dose: 25.0 mg/kg/injection, vehicle: saline with Tween-80
  T/C: 105 % of control
dose: 50.0 mg/kg/injection, vehicle: saline with Tween-80
  T/C: 108 % of control
[8]
  T/C: 106 % of control
[9]
  T/C: 96 % of control

## CC(C)(C)c1cc2c3c(c1)Oc1cc(C(C)(C)C)cc4c1C3(O)c1c(cc(C(C)(C)C)cc1O4)O2
[10]
  T/C: 111 % of control
dose: 9.0 mg/kg/injection, vehicle: Klucel (hydroxypropylcellulose) (HPC)
  T/C: 113 % of control
[11]
  T/C: 113 % of control

## CC1[C@@H]2CC=C3[C@H]4CCC5Cc6nc7c(nc6C[C@@]5(C)C4CC(=O)[C@]32CO[C@]12OC(C)(C)CC2O)CC1CC[C@@H]2C3=C[C@H]4O[C@@]5(O[C@@](C)(CO)C[C@@H]5O)C(C)[C@@]4(O)[C@]3(C)[C@@H](O)CC2[C@]1(C)C7 (stereo not given in full)
dose: 12.5 micrograms/kg/injection, vehicle: saline + alcohol
  T/C: 98 % of control
dose: 25.0 micrograms/kg/injection, vehicle: saline + alcohol
  T/C: 94 % of control
dose: 50.0 micrograms/kg/injection, vehicle: saline + alcohol
  T/C: 102 % of control
dose: 100.0 micrograms/kg/injection, vehicle: saline + alcohol
  T/C: 103 % of control and 107 % of control
dose: 200.0 micrograms/kg/injection, vehicle: saline + alcohol
  T/C: 114 % of control

## N#CC1C(=O)NC(=O)C(C#N)C1c1ccncc1 (stereo not given)
[4]
  T/C: 100 % of control
[5]
  T/C: 110 % of control
[6]
  T/C: 91 % of control
[7]
  T/C: 104 % of control
[12]
  T/C: 96 % of control

## O=C1C=C(N2CC2)C(=O)C(N2CC2)=C1N1CC1
dose: 1.56 micrograms/kg/injection, vehicle: saline
  T/C: 99 % of control
dose: 3.12 micrograms/kg/injection, vehicle: saline
  T/C: 103 % of control
dose: 6.25 micrograms/kg/injection, vehicle: saline
  T/C: 111 % of control
dose: 12.5 micrograms/kg/injection, vehicle: saline
  T/C: 111 % of control
dose: 25.0 micrograms/kg/injection, vehicle: saline
  T/C: 114 % of control

## COc1cc2c(oc(=O)c3cc(C)cc(OC)c32)c2c(C3OC(C)C(O)C(C)(O)C3O)ccc(O)c12 (stereo not given)
dose: 3.12 mg/kg/injection, vehicle: DMSO
  T/C: 106 % of control and 107 % of control
dose: 6.25 mg/kg/injection, vehicle: DMSO
  T/C: 101 % of control and 109 % of control
dose: 12.5 mg/kg/injection, vehicle: DMSO
  T/C: 101 % of control and 107 % of control
dose: 25.0 mg/kg/injection, vehicle: DMSO
  T/C: 109 % of control and 112 % of control
dose: 50.0 mg/kg/injection, vehicle: DMSO
  T/C: 103 % of control and 109 % of control

## Cc1ccc(NN=O)nc1
dose: 3.13 mg/kg/injection, vehicle: water
  T/C: 113 % of control
dose: 6.25 mg/kg/injection, vehicle: water
  T/C: 113 % of control
[1]
  T/C: 160 % of control
[2]
  T/C: 160 % of control

## CC[C@](C)(O)C(=O)O[C@H]1C(=O)O[C@@H]2C[C@H]3C(C)=CC(=O)[C@@H](O)[C@]3(C)[C@H]3[C@@]4(O)OC[C@]32[C@@H]1[C@@H](C)[C@H]4O
dose: 0.03 mg/kg/injection, vehicle: saline
  T/C: 102 % of control
dose: 0.06 mg/kg/injection, vehicle: saline
  T/C: 117 % of control
dose: 0.25 mg/kg/injection, vehicle: saline
  T/C: 100 % of control

## CC(C)(C)NC(C1=CC(C)(C)c2ccccc2C1=O)c1ccccc1 (stereo not given)
[4]
  T/C: 103 % of control
[5]
  T/C: 101 % of control
[6]
  T/C: 110 % of control
[7]
  T/C: 104 % of control

## N#CC1C(=O)NC(=O)C(C#N)C1CCc1ccccc1 (stereo not given)
dose: 50.0 mg/kg/injection, vehicle: Klucel + Tween-80
  T/C: 105 % of control
dose: 100.0 mg/kg/injection, vehicle: Klucel + Tween-80
  T/C: 97 % of control
dose: 200.0 mg/kg/injection, vehicle: Klucel + Tween-80
  T/C: 105 % of control

## NCCCC(N)(C(=O)O)C(F)F (stereo not given)
[13]
  T/C: 96 % of control
[14]
  T/C: 99 % of control
dose: 200.0 mg/kg/injection, vehicle: saline
  T/C: 99 % of control
dose: 400.0 mg/kg/injection, vehicle: saline
  T/C: 99 % of control
dose: 800.0 mg/kg/injection, vehicle: saline
  T/C: 102 % of control

## CC(C)(C[NH-])C[NH-].[Cl][Pt+2][Cl]
dose: 0.25 mg/kg/injection, vehicle: water
  T/C: 116 % of control
dose: 1.0 mg/kg/injection, vehicle: water
  T/C: 157 % of control and 174 % of control
dose: 2.0 mg/kg/injection, vehicle: water
  T/C: 181 % of control and 198 % of control
dose: 4.0 mg/kg/injection, vehicle: water
  T/C: 90 % of control and 241 % of control

## [Cl][Mn][Cl]
dose: 12.5 mg/kg/injection, vehicle: saline
  T/C: 96 % of control
dose: 25.0 mg/kg/injection, vehicle: saline
  T/C: 100 % of control
[13]
  T/C: 124 % of control
[14]
  T/C: 111 % of control

## COc1cc2c(c(OC)c1OC)-c1cccc(=O)cc1C(NC(C)=O)CC2 (stereo not given)
dose: 3.15 mg/kg/injection, vehicle: Klucel (hydroxypropylcellulose) (HPC)
  T/C: 98 % of control
[10]
  T/C: 113 % of control
[11]
  T/C: 107 % of control
[3]
  T/C: 116 % of control and 117 % of control
dose: 36.0 mg/kg/injection, vehicle: Klucel (hydroxypropylcellulose) (HPC)
  T/C: 114 % of control
[4]
  T/C: 115 % of control
dose: 60.0 mg/kg/injection, vehicle: Klucel (hydroxypropylcellulose) (HPC)
  T/C: 113 % of control
[5]
  T/C: 110 % of control and 121 % of control
dose: 166.67 mg/kg/injection, vehicle: Klucel (hydroxypropylcellulose) (HPC)
  T/C: 107 % of control
dose: 277.78 mg/kg/injection, vehicle: Klucel (hydroxypropylcellulose) (HPC)
  T/C: 111 % of control

## C=C(c1ccc(OC)c(OC)c1)c1nccc2cc(OC)c(OC)cc12
[5]
  T/C: 102 % of control
[6]
  T/C: 119 % of control
[7]
  T/C: 98 % of control
[12]
  T/C: 102 % of control
